This note sets out measurements from patent US20240277663A1, “PHARMACEUTICAL KITS AND USES THEREOF FOR TREATING COLORECTAL CANCER” (priority 2023, published 2024).

Experiment [1] concerns CT26 allograft tumor (MSS subtype colorectal carcinoma). Put plainly: CT26 subcutaneous tumor model, HDAC inhibitors with or without RMP1-14. Particulars: for response in the mice on the growth of tumor (individual tumor volumes): compared to vehicle group or to other combinations, ABT-301 100 mg/kg, vorinostat 100 mg/kg, citarinostat 50 mg/kg, RMP1-14 200 μg.
Description: MC-38 cells (purchased from Kerafast, Inc.), derived from C57BL/6 murine colon adenocarcinoma cells typically classified as microsatellite instable, were maintained in DMEM with 10% fetal bovine serum, 100 U/mL penicillin, 100 μg/mL streptomycin, 10 mM HEPES, and 1× nonessential amino acid. All the cells were maintained in a humidified atmosphere having 5% CO2 at 37° C.
(§1) Female BALB/c mice (BALB/cByJNarl) aged 5-7 weeks (for CT26 subcutaneous tumor model), and female C57BL/6 mice (C57BL/6JNarl) aged 5-7 weeks (for MC-38 subcutaneous tumor model), were housed in standard cages within the animal facility at the Industrial Technology Research Institute (ITRI). A one-week acclimatization period preceded the commencement of the study, with the health of the mice monitored daily. Animals were kept in rooms at 22-26° C. with 40-70% humidity, positive pressure, 60% air recirculation, ventilation rate 15-20 changes per hour, and a controlled light-dark cycle (12-12 hours).
(§2) CT26 cells (2×10^5) were suspended in 100 μl of PBS and subcutaneously inoculated into the right flank of female BALB/c mice. Tumors were measured with calipers, and tumor size was calculated as follows: tumor volume (V)=(L×S^2)/2 (L, longest diameter, mm; S, shortest diameter, mm). Tumor size and body weight of mice were monitored and recorded twice to thrice per week. The antitumor activities of treatments were expressed as percentages of tumor growth inhibition (% TGI), as calculated using the following formula: [1−(final tumor volume−initial tumor volume for treated group)/(final tumor volume−initial tumor volume for vehicle group)]×100. Body weight of each mouse was also compared to that on the first day of treatment (Day 0) and expressed as a percentage of Day 0 value.
When mean tumor volume reached about 80-100 mm^3, treatments were initiated and the day of treatment initiation was designated as Day 0. […] Treatments were administered for indicated period (31 days) or until humane endpoints. Eight or nine mice were used in each group. […] RMP1-14 was prepared with PBS.
For another experiment, the system named is colorectal cancer tumor. The experiment in a line: Another batch: HDAC inhibitors (PCI-34051, elevenostat, ABT-301) with or without RMP1-14 in tumor-bearing mice. Format: in vivo, mouse. The settings on record: another batch of experiments, data not shown; compared to vehicle group or to other combinations.
A further experiment concerns the target T1, HDAC7 (Homo sapiens, UniProt Q8WUI4).
T1 sequence (Q8WUI4 1-952): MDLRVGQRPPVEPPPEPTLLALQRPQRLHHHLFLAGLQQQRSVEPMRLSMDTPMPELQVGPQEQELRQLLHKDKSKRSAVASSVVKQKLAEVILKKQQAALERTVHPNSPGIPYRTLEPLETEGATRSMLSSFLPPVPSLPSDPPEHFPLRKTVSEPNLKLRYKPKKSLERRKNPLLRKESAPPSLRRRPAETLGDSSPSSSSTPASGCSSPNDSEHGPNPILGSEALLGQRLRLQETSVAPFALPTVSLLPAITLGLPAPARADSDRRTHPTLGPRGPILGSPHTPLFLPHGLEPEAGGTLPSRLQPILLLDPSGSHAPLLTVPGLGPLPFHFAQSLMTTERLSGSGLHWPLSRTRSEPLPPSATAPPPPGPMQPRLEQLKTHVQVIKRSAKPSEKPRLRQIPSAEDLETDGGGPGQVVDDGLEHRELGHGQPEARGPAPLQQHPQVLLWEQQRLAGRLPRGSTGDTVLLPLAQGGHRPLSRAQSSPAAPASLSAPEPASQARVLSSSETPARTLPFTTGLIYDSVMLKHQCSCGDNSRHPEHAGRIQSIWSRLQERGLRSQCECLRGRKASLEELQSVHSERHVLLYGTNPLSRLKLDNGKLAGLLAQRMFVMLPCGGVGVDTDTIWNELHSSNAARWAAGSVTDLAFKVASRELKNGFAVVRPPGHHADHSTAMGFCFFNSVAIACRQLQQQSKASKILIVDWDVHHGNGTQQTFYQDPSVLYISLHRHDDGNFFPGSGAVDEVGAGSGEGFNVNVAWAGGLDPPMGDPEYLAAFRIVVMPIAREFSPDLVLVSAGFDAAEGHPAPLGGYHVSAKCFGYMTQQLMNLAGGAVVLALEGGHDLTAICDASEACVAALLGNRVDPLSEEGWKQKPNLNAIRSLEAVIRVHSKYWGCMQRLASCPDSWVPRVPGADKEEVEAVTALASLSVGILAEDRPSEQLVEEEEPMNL
Put plainly: HDAC enzymatic activity assay (fluorogenic, Reaction Biology).

A further experiment has as its target T2, HDAC11 (Homo sapiens, UniProt Q96DB2).
T2 sequence (Q96DB2 1-347): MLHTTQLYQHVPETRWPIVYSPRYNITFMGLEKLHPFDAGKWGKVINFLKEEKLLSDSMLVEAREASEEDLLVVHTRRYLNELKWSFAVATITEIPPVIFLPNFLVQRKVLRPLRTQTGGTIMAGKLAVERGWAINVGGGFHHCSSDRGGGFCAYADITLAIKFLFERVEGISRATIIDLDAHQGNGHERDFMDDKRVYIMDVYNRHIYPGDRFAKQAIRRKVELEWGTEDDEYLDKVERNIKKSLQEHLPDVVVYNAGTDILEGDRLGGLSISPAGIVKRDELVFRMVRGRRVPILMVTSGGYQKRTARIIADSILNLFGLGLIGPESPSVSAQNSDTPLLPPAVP
The experiment is described as above.

Another experiment has as its target HDAC9 (Homo sapiens, UniProt Q9UKV0). The description is as above.
In the next experiment the target is T3, HDAC10 (Homo sapiens, UniProt Q969S8).
T3 sequence (Q969S8 1-669): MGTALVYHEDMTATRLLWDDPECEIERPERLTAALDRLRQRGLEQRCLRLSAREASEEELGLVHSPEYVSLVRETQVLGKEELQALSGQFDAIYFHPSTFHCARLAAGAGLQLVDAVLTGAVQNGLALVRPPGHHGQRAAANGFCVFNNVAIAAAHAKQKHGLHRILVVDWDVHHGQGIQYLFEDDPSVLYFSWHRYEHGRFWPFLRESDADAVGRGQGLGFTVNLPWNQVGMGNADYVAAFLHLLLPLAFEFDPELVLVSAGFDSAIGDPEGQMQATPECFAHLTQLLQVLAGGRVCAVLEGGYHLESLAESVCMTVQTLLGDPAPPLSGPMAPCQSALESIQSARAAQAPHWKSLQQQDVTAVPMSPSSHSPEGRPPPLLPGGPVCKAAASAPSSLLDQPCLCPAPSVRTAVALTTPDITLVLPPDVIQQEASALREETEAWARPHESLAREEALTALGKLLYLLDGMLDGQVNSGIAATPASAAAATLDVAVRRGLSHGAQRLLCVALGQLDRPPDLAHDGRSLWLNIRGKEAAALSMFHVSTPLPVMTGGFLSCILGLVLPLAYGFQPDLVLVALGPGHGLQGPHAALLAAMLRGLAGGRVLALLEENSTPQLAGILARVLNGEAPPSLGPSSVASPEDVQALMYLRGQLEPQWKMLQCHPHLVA
Described as above.

The test system of experiment [2] is MC-38 allograft tumor (MSI-H subtype colorectal carcinoma).
Description: As described herein, tumor responses were evaluated using Response Evaluation Criteria in Solid Tumors (RECIST) criteria. Complete response (CR) was defined as complete disappearance of measurable or evaluable tumor lesions; partial response (PR) was defined as reduction of the size of measurable tumor lesions by at least 30% (≥30%) compared to the original tumor size; stable disease (SD) was defined as reduction of the size of measurable tumor lesions by less than 30% (<30%) or enlargement of the size of measurable tumor lesions by less than 20% (<20%) compared to the original tumor size; and progressive disease (PD) was defined as growth of the tumor by more than 30% (>30%) in the tumor volume compared to the original tumor size or development of new lesions. […]
Female BALB/c mice (BALB/cByJNarl) aged 5-7 weeks (for CT26 subcutaneous tumor model), and female C57BL/6 mice (C57BL/6JNarl) aged 5-7 weeks (for MC-38 subcutaneous tumor model), were housed in standard cages within the animal facility at the Industrial Technology Research Institute (ITRI). A one-week acclimatization period preceded the commencement of the study, with the health of the mice monitored daily. […]
MC-38 cells (2×10^5) were suspended in 100 μl of PBS and subcutaneously inoculated into the right flank of female C57BL/6 mice. Tumors were measured with calipers, and tumor size was calculated as follows: tumor volume (V)=(LxS^2)/2 (L, longest diameter, mm; S, shortest diameter, mm). Tumor size and body weight of mice were monitored and recorded twice to thrice per week. The antitumor activities of treatments were expressed as percentages of tumor growth inhibition (% TGI), as calculated using the following formula: [1−(final tumor volume−initial tumor volume for treated group)/(final tumor volume−initial tumor volume for vehicle group)]×100. Body weight of each mouse was also compared to that on the first day of treatment (Day 0) and expressed as a percentage of Day 0 value. […]
Experiment [3] concerns CT26 allograft tumor (MSS subtype colorectal carcinoma).
Description: As described herein, tumor responses were evaluated using Response Evaluation Criteria in Solid Tumors (RECIST) criteria. Complete response (CR) was defined as complete disappearance of measurable or evaluable tumor lesions; partial response (PR) was defined as reduction of the size of measurable tumor lesions by at least 30% (≥30%) compared to the original tumor size; stable disease (SD) was defined as reduction of the size of measurable tumor lesions by less than 30% (<30%) or enlargement of the size of measurable tumor lesions by less than 20% (<20%) compared to the original tumor size; and progressive disease (PD) was defined as growth of the tumor by more than 30% (>30%) in the tumor volume compared to the original tumor size or development of new lesions.
All the cells were maintained in a humidified atmosphere having 5% CO2 at 37° C.
as §1, §2
The administration of treatments commenced five days following the inoculation of CT26 cells, with the day of treatment initiation designated as Day 0. When mean tumor volume reached 50-100 mm^3, the mice were assigned into four groups through S-type grouping according to tumor size. […] Eight mice were used in each group. Treatments were administered for 43 days. […] Avelumab was prepared with PBS.
Experiment [4] shares this test system. The experiment in a line: CT26 subcutaneous tumor model, multiple doses of ABT-301 with or without avelumab. Format: in vivo, mouse. Here is the method:
Treatments were administered for indicated period (24 days) or until humane endpoints. Ten mice were used in each group. […] Avelumab was prepared with PBS.

[5] abbreviates: Day 28 after treatments, ABT-301 100 mg/kg PO, avelumab 100 μg IP, means ± SEM.

Like-named read-outs stand apart in the source and are kept apart here. Marks after values point to notes of the source that are not given here. Some results are limits rather than exact numbers.

HDAC9, sequence (Q9UKV0 whole entry): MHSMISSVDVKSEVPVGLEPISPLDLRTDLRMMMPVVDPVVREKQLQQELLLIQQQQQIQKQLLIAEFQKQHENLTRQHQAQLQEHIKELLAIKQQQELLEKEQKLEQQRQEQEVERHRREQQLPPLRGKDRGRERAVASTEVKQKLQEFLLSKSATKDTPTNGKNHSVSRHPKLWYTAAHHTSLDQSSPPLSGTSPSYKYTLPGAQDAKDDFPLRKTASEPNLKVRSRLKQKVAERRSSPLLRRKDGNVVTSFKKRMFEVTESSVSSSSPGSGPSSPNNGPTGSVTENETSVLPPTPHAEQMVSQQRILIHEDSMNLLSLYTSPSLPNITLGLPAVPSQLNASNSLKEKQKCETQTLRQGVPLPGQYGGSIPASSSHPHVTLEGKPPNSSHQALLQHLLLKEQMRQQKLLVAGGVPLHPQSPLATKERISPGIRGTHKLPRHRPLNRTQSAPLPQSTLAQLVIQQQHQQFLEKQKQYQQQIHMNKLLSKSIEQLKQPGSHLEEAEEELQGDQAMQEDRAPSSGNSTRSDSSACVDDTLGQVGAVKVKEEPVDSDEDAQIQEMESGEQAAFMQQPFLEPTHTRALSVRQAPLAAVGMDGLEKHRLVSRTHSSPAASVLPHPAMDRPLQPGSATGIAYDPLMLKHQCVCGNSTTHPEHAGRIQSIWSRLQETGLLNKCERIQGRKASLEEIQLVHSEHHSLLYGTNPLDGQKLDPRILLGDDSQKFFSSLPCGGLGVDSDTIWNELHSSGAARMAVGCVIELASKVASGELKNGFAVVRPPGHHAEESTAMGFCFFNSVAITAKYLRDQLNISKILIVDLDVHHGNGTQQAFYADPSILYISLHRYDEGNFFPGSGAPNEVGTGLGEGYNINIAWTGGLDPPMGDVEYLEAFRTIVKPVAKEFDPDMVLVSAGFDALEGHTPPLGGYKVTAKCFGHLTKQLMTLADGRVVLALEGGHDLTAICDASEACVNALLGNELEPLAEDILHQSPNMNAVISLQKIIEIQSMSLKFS

Turning to `O=C(CCCCCCNC(=O)c1cnc(N(c2ccccc2)c2ccccc2Cl)nc1)NO` [Citarinostat], in [1] (Day 22 after treatments, ABT-301 100 mg/kg PO, vorinostat 100 mg/kg PO, citarinostat 50 mg/kg IP, RMP1-14 200 μg IP), the “TGI (tumor growth inhibition)” value turned out to be 38%. Besides, the “response in the mice on the growth of tumor (individual tumor volumes)” value in experiment [1] is reported as “did not elicit a visible response”.

With `COc1ccc(Cn2ccc3ccc(C(=O)NO)cc32)cc1` [PCI-34051], the “response in the mice on the growth of tumor” value in the experiment with colorectal cancer tumor is given as “did not elicit a visible response”.

Consider `Nc1cc(F)ccc1NC(=O)c1ccc(CNC(=O)/C=C/c2cccnc2)cc1` [Tucidinostat, reference compound], for which the IC50 at HDAC7, against HDAC11, against HDAC9 and against HDAC10 was over 3 µM each time.

Regarding `O=C(CCCCCCC(=O)Nc1ccccc1)NO` [Vorinostat], in experiment [1], the “response in the mice on the growth of tumor (individual tumor volumes)” value was “did not elicit a visible response”.

Regarding `COc1ccccc1NC(=O)NCc1ccc(C(=O)NO)cc1` [elevenostat], the “response in the mice on the growth of tumor” value with colorectal cancer tumor is recorded as “did not elicit a visible response”.

As for “Avelumab: an anti-PD-L1 antibody [reference compound]”, the Tumor size in [2] (Day 25 after treatments, ABT-301 100 mg/kg PO, avelumab 200 μg IP, RMP1-14 200 μg IP, means ± SEM) is listed as 529.91 ± 329.24 mm^3; in experiment [3] (setting [5]) it was 559.63 ± 156.94 mm^3; in [4] (Day 24 after treatments, avelumab 200 μg alone, means ± SEM) it was 31.79 ± 26.66** mm^3. In addition, the “complete response (CR) rate” value is listed as 4/8 in [2] (MC-38-bearing C57BL/6 mice, n=8/group, ABT-301 100 mg/kg PO QD, avelumab 200 μg IP BIW, RMP1-14 200 μg IP BIW) and 1/8 in [3] (CT26-bearing BALB/c mice, n=8/group, ABT-301 100 mg/kg PO QD, avelumab 100 μg IP BIW). The Median survival in experiment [2] (MC-38 allograft tumor mice, over the entire study, ABT-301 100 mg/kg PO QD, avelumab or RMP1-14 200 μg IP BIW) came to 68 days; in experiment [3] (CT26 allograft tumor mice, over the entire study, ABT-301 100 mg/kg PO QD, avelumab 100 μg IP BIW), 28 days. For the same compound, in experiment [3] (setting [5]), the “TGI (tumor growth inhibition)” value is 58.51 ± 14.14%. In addition, the “number of mice exhibiting complete response (CR)” value in experiment [4] (avelumab 200 μg IP BIW alone, out of 10 mice) amounted to 7.
